Measured values from patent US9738600B2, “ROR gamma (RORγ) modulators” (LEAD PHARMA CEL MODELS IP B.V., priority 2013, dated 2017).

Biological target: T1, RORγ (Homo sapiens, UniProt P51449)
T1 sequence (P51449 269-508 limits assumed): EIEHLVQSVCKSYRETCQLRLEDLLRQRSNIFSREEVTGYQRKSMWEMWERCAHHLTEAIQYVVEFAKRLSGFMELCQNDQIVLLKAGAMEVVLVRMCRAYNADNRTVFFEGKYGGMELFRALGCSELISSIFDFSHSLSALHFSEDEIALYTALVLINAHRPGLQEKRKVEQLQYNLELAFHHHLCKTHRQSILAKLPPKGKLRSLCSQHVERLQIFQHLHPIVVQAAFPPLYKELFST
Assay: RORγ GAL4 reporter gene assay
Details: mean pIC50, inhibition of RORγ (GAL4-RORγ-LBD) in 293FT cells, luciferase readout, overnight incubation
Text: The RORγ ligand-binding domain (LBD) was fused to the yeast GAL4 DNA binding domain (DBD) and placed under the control of the human cytomegalovirus (CMV) immediate early promoter, using expression vector pFN26A (Promega) and standard recombinant DNA cloning methods.
To monitor the inhibitory effect of compounds on RORγ, a transcriptional reporter construct was used. The pGL4.35 vector (Promega) contains nine copies of the GAL4 Upstream Activator Sequence (UAS). This sequence drives the transcription of the luciferase reporter gene luc2P in response to binding of a fusion protein containing the GAL4 DNA binding domain, as for example expressed by the GAL4-RORγ-LBD and GAL4-VP16 expression vectors described above.
The day after transfection, cells were plated into 96 well plates, test compound was added and the plates were incubated overnight. Subsequently, the firefly luciferase activity was quantified using luciferase detection reagent and luminescence readout.
1500 μL of this reagent mixture was added to 5 μg of GAL4 fusion protein expression vector and 5 μg of the transcriptional reporter construct, and incubated at RT for 20 minutes.
Subsequently, the cells were washed with Phosphate Buffered Saline (PBS) (Lonza), after which the PBS was removed. To dissociate the cells, 1 ml of TrypLE Express (Invitrogen) was added to the flask, followed by incubation at RT until the cells visually started to detach. Cells were collected in 5 mL of assay medium (DMEM culture medium (Lonza), 10% dialyzed FBS (Invitrogen) and Pen/Strep (Lonza)) to achieve a single cell suspension. 10×10^6 cells were spun down and re-suspended in 10 mL of assay medium. Subsequently, the cell suspension was added to the transfection mix tube, and then transferred as a whole to a T75 flask (Greiner), followed by overnight (16-24 hours) incubation at 37° C. and 5% CO2.
For compound screening, the cells were harvested (as described above) and counted. […] 80 μL of cell suspension (60,000 cells) was plated per well into a white, flat bottom, tissue culture treated, 96 well screening plates (Greiner).
Test compounds were diluted, starting from a 10 mM dimethylsulfoxide (DMSO) stock solution, to serial dilutions in DMSO at 500× the final test concentration. Subsequently, these solutions were diluted to 5× the final test concentration in two 10-fold-dilution steps in assay medium. The final DMSO concentration of the 5× test compound solution was 1%. 20 μL of the 5× test compound solution was added to each test well of the 96 well plate previously plated with 80 μl cell suspension, resulting in the final test concentration with 0.2% DMSO.
The plates were incubated overnight (16-24 hours) at 37° C. and 5% CO2.
For the luciferase readout, the luciferase reagent (Britelite Plus, Perkin Elmer) was brought to RT. […] The luciferase luminescence signal was measured using a Wallac Victor Microplate Reader (Perkin Elmer).
The half maximum inhibitory concentration (IC50) values for the test compounds were calculated from the luciferase signal using GraphPad Prism software (GraphPad Software).

IC50 [µM]	SMILES
≤ 0.1	CCS(=O)(=O)c1ccc(CC(=O)Nc2ccc(C(O)(CC(C)(C)C)C(F)(F)F)cc2)cc1 (stereo not shown) [Example 96, 2-(4-(ethylsulfonyl)phenyl)-N-(4-(1,1,1-trifluoro-2-hydroxy-4,4-dimethylpentan-2-yl)phenyl)acetamide]
≤ 1	CCS(=O)(=O)c1ccc(CC(=O)Nc2ccc(C(O)(c3ccccc3)C(F)(F)F)cc2)cc1 (stereo not shown) [Example 97, 2-(4-(ethylsulfonyl)phenyl)-N-(4-(2,2,2-trifluoro-1-hydroxy-1-phenylethyl)phenyl)acetamide]
≤ 0.1	O=C(Cc1ccc(S(=O)(=O)CC2CC2)cc1)Nc1ccc(C(O)(C(F)(F)F)C(F)(F)F)cc1Cl [Example 98, N-(2-chloro-4-(1,1,1,3,3,3-hexafluoro-2-hydroxypropan-2-yl)phenyl)-2-(4-((cyclopropylmethyl)sulfonyl)phenyl)acetamide]
≤ 1	O=C(Cc1ccc(S(=O)(=O)NC2CC2)cc1)Nc1ccc(C(O)(CC2CCCC2)C(F)(F)F)cc1 (stereo not shown) [Example 99, N-(4-(3-cyclopentyl-1,1,1-trifluoro-2-hydroxypropan-2-yl)phenyl)-2-(4-(N-cyclopropylsulfamoyl)phenyl)acetamide]
≤ 1	O=C(Nc1ccc(C(O)(C(F)(F)F)C(F)(F)F)cc1)C(=O)c1ccc(S(=O)(=O)CC2CC2)cc1 [Example 102, 2-(4-((cyclopropylmethyl)sulfonyl)phenyl)-N-(4-(1,1,1,3,3,3-hexafluoro-2-hydroxypropan-2-yl)phenyl)-2-oxoacetamide]
≤ 0.1	CC(C)CCC(O)(c1ccc(NC(=O)Cc2ccc(S(=O)(=O)CC3CC3)cc2)cc1)C(F)(F)F (stereo not shown) [Example 104, 2-(4-((cyclopropylmethyl)sulfonyl)phenyl)-N-(4-(1,1,1-trifluoro-2-hydroxy-5-methylhexan-2-yl)phenyl)acetamide]
≤ 0.1	O=C(Cc1ccc(S(=O)(=O)CC2CC2)cc1)Nc1ccc(C(O)(C2CC2)C2CC2)cc1 [Example 106, 2-(4-((cyclopropylmethyl)sulfonyl)phenyl)-N-(4-(dicyclopropyl(hydroxy)methyl)phenyl)acetamide]
≤ 0.1	CC(C)CCCC(O)(c1ccc(NC(=O)Cc2ccc(S(=O)(=O)CC3CC3)cc2)cc1)C(F)(F)F (stereo not shown) [Example 108, 2-(4-((cyclopropylmethyl)sulfonyl)phenyl)-N-(4-(1,1,1-trifluoro-2-hydroxy-6-methylheptan-2-yl)phenyl)acetamide]
≤ 0.1	CC(C(=O)Nc1ccc(C(O)(C(F)(F)F)C(F)(F)F)cc1)c1ccc(S(=O)(=O)CC2CC2)cc1 (stereo not shown) [Example 109, 2-(4-((cyclopropylmethyl)sulfonyl)phenyl)-N-(4-(1,1,1,3,3,3-hexafluoro-2-hydroxypropan-2-yl)phenyl)propanamide]
≤ 1	O=C(Cc1ccc(S(=O)(=O)CC2CC2)cc1)Nc1ccc(C(O)(C(F)(F)F)C(F)(F)F)nc1 [Example 110, 2-(4-((cyclopropylmethyl)sulfonyl)phenyl)-N-(6-(1,1,1,3,3,3-hexafluoro-2-hydroxypropan-2-yl)pyridin-3-yl)acetamide]
≤ 1	CCS(=O)(=O)c1ccc(CC(=O)Nc2ccc(C(OCC(F)(F)F)(C(F)(F)F)C(F)(F)F)cc2)cc1 [Example 112, 2-(4-(ethylsulfonyl)phenyl)-N-(4-(1,1,1,3,3,3-hexafluoro-2-(2,2,2-trifluoroethoxy)propan-2-yl)phenyl)acetamide]
≤ 0.1	O=C(Cc1ccc(S(=O)(=O)CC2CC2)cc1)Nc1ccc(C(OCC(F)(F)F)(C(F)(F)F)C(F)(F)F)cc1 [Example 113, 2-(4-((cyclopropylmethyl)sulfonyl)phenyl)-N-(4-(1,1,1,3,3,3-hexafluoro-2-(2,2,2-trifluoroethoxy)propan-2-yl)phenyl)acetamide]
≤ 0.1	O=C(Nc1ccc(C(O)(C(F)(F)F)C(F)(F)F)cc1)C(O)c1ccc(S(=O)(=O)CC2CC2)cc1 (stereo not shown) [Example 114, 2-(4-((cyclopropylmethyl)sulfonyl)phenyl)-N-(4-(1,1,1,3,3,3-hexafluoro-2-hydroxypropan-2-yl)phenyl)-2-hydroxyacetamide]
